{
  "source": "the kinase profiling compilation of Christmann-Franck et al. (2016)",
  "assay_in_all_cases": "radiometric filter-binding kinase assay",
  "key": {"[1]": {"biological_target": "MYLK (human) (UniProt Q15746)"}, "[2]": {"biological_target": "CHEK1 (human) (UniProt O14757)"}, "[3]": {"biological_target": "IKBKB (human) (UniProt O14920)"}, "[4]": {"biological_target": "SRPK1 (human) (UniProt Q96SB4)", "sequence (Q96SB4 whole entry, looked up)": "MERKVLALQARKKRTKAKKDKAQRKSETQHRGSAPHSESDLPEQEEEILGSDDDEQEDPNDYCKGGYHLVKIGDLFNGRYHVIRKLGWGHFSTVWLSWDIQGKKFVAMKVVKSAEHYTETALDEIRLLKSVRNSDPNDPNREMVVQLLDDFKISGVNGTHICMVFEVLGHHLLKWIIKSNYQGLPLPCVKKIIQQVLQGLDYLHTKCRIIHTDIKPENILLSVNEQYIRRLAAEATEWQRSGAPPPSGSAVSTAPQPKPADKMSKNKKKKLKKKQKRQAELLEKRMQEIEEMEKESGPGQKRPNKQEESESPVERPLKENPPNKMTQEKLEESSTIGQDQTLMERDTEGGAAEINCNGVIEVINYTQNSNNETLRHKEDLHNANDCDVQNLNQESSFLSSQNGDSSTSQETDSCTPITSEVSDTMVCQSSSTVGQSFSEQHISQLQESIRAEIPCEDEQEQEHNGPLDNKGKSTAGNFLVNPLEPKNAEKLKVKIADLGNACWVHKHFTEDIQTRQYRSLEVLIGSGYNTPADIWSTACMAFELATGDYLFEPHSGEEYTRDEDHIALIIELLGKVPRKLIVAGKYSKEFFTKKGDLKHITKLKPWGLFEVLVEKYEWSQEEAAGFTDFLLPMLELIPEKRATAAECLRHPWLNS"}, "[5]": {"biological_target": "PIM1 (human) (UniProt P11309)", "sequence (P11309 whole entry, looked up)": "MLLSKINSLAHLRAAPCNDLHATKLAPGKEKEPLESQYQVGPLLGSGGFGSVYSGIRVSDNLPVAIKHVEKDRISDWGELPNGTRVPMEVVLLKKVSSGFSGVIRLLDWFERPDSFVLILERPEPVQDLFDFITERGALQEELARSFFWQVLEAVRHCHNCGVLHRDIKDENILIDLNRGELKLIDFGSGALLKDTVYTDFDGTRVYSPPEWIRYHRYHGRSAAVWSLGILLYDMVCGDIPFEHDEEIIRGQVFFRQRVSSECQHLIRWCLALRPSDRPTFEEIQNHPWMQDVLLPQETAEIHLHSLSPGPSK"}, "[6]": {"biological_target": "PIM3 (human) (UniProt Q86V86)"}, "[7]": {"biological_target": "MKNK2 (human) (UniProt Q9HBH9)"}, "[8]": {"biological_target": "MAPK9 (human) (UniProt P45984)", "sequence (P45984 whole entry, looked up)": "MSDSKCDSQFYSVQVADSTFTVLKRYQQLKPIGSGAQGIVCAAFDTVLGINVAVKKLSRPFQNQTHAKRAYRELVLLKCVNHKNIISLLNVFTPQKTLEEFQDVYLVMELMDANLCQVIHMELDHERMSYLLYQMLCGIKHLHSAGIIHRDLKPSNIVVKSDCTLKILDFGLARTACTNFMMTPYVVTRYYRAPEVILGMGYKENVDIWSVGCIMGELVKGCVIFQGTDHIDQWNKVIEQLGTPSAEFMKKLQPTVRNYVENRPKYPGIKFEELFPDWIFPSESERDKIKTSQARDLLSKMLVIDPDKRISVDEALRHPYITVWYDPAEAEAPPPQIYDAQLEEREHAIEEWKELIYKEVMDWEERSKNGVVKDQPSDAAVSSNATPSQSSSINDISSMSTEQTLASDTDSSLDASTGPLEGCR"}, "[9]": {"system": "RPS6KB1 (human), P23443 [T412E]"}, "[10]": {"biological_target": "MAPKAPK2 (human) (UniProt P49137)"}, "[11]": {"biological_target": "TBK1 (human) (UniProt Q9UHD2)"}, "[12]": {"biological_target": "PKN2 (human) (UniProt Q16513)"}, "[13]": {"biological_target": "BTK (human) (UniProt Q06187)"}, "[14]": {"biological_target": "YES1 (human) (UniProt P07947)", "sequence (P07947 whole entry, looked up)": "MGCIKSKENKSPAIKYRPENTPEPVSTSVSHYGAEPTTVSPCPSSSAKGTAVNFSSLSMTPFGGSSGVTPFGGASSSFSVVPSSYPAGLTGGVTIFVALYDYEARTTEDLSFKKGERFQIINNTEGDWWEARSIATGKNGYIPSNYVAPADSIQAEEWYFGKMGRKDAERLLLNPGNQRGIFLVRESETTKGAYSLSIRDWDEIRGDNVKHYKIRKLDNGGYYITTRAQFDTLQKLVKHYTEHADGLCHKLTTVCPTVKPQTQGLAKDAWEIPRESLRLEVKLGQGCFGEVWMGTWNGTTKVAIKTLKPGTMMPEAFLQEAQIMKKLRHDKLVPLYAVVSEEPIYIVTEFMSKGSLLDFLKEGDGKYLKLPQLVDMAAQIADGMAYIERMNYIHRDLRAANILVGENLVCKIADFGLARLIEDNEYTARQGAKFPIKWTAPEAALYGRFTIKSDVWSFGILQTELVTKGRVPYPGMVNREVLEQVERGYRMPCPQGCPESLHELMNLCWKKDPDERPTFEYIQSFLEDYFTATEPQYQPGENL"}, "[15]": {"biological_target": "CSNK2A1 (human) (UniProt P68400)"}, "[16]": {"biological_target": "MARK3 (human) (UniProt P27448)", "sequence (P27448 whole entry, looked up)": "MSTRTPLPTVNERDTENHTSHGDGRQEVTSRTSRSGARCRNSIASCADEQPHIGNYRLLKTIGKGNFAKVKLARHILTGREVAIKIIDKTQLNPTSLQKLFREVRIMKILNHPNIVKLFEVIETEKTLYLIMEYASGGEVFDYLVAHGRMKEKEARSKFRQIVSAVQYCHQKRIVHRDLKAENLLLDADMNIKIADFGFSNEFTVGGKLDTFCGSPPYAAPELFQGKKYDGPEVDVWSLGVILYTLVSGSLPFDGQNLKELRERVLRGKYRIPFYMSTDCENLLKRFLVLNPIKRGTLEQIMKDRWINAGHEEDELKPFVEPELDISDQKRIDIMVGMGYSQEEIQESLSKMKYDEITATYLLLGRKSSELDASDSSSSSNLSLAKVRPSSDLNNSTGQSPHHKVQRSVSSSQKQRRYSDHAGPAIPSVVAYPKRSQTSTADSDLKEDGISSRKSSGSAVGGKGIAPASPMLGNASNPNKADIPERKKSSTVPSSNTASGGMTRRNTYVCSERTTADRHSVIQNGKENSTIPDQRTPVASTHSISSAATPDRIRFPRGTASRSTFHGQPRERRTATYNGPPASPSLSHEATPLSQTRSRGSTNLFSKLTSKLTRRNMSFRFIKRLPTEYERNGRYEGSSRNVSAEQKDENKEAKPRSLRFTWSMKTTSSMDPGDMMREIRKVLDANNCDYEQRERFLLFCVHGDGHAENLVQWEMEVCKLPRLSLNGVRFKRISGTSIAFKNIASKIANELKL"}, "[17]": {"biological_target": "PIM2 (human) (UniProt Q9P1W9)"}, "[18]": {"biological_target": "NEK6 (human) (UniProt Q9HC98)", "sequence (Q9HC98 whole entry, looked up)": "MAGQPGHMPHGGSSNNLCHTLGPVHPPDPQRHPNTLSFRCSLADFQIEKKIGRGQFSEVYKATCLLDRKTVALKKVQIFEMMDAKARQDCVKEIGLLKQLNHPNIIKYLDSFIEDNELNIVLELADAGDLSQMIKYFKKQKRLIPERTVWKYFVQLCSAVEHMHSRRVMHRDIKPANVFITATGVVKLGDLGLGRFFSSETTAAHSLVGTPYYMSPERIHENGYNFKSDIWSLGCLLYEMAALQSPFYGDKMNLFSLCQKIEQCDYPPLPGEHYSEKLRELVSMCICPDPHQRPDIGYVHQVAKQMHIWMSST"}, "[19]": {"biological_target": "STK3 (human) (UniProt Q13188)"}, "[20]": {"biological_target": "CDK2 CCNA2 (human) (UniProt P20248+P24941)"}, "[21]": {"biological_target": "PAK6 (human) (UniProt Q9NQU5)", "sequence (Q9NQU5 whole entry, looked up)": "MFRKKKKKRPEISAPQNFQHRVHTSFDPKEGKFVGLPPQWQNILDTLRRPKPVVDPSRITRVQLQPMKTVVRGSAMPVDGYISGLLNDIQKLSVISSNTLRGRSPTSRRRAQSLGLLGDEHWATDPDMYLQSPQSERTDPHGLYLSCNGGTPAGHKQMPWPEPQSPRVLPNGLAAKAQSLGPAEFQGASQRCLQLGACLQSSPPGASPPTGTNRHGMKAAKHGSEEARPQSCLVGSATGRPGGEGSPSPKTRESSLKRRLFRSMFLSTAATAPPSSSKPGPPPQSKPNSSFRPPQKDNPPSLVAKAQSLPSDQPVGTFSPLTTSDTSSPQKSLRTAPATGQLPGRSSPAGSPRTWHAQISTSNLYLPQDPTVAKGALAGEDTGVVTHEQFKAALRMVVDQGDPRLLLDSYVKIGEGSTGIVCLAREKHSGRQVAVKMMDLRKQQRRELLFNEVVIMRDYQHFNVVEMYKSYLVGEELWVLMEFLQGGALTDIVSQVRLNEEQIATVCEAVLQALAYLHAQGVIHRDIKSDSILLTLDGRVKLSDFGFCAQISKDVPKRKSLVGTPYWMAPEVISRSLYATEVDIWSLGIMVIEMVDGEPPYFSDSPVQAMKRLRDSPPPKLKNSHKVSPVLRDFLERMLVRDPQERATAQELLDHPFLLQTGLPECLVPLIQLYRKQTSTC"}, "[22]": {"biological_target": "EEF2K (human) (UniProt O00418)", "sequence (O00418 whole entry, looked up)": "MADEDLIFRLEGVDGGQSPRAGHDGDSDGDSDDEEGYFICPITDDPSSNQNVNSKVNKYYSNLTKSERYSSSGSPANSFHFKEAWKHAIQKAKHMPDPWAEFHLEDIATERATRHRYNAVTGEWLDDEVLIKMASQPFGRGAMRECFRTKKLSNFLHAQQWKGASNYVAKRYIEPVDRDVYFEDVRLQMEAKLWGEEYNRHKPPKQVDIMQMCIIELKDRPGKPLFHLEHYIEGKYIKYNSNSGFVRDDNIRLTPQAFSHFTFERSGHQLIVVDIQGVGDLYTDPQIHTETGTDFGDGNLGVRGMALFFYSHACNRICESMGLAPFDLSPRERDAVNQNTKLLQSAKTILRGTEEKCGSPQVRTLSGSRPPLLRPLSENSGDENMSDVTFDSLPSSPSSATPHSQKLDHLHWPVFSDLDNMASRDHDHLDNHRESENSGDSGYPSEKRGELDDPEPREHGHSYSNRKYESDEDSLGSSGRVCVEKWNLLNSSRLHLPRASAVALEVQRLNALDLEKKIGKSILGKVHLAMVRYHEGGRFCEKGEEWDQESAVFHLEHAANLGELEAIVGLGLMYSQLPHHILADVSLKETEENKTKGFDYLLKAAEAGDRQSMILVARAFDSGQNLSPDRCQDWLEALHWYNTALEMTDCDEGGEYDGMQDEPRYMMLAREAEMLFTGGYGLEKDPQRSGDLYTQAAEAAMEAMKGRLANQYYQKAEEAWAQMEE"}, "[23]": {"biological_target": "INSRR (human) (UniProt P14616)"}, "[24]": {"biological_target": "RPS6KA5 KD1 KD2 (human) (UniProt O75582)"}, "[25]": {"biological_target": "MAP2K1 (human) (UniProt Q02750)"}},
  "data": [
    {"smiles": "Cn1c(=O)c2c(ncn2C)n(C)c1=O", "values": [
      {"measurement": "residual activity", "setting": "[1]; compound 0.1 µM", "value": 90, "unit": "%"},
      {"measurement": "residual activity", "setting": "[1]; compound 1.0 µM", "value": 91, "unit": "%"},
      {"measurement": "residual activity", "setting": "[2]; compound 0.1 µM", "value": 88, "unit": "%"},
      {"measurement": "residual activity", "setting": "[2]; compound 1.0 µM", "value": 96, "unit": "%"},
      {"measurement": "residual activity", "setting": "[3]; compound 0.1 µM", "value": 90, "unit": "%"},
      {"measurement": "residual activity", "setting": "[3]; compound 1.0 µM", "value": 100, "unit": "%"},
      {"measurement": "residual activity", "setting": "[4]; compound 0.1 µM", "value": 93, "unit": "%"},
      {"measurement": "residual activity", "setting": "[4]; compound 1.0 µM", "value": 97, "unit": "%"},
      {"measurement": "residual activity", "setting": "[5]; compound 0.1 µM", "value": 90, "unit": "%"},
      {"measurement": "residual activity", "setting": "[5]; compound 1.0 µM", "value": 97, "unit": "%"},
      {"measurement": "residual activity", "setting": "[6]; compound 0.1 µM", "value": 99, "unit": "%"},
      {"measurement": "residual activity", "setting": "[6]; compound 1.0 µM", "value": 97, "unit": "%"},
      {"measurement": "residual activity", "setting": "[7]; compound 0.1 µM", "value": 87, "unit": "%"},
      {"measurement": "residual activity", "setting": "[7]; compound 1.0 µM", "value": 91, "unit": "%"},
      {"measurement": "residual activity", "setting": "[8]; compound 0.1 µM", "value": 94, "unit": "%"},
      {"measurement": "residual activity", "setting": "[8]; compound 1.0 µM", "value": 100, "unit": "%"},
      {"measurement": "residual activity", "setting": "[9]; compound 0.1 µM", "value": 100, "unit": "%"},
      {"measurement": "residual activity", "setting": "[9]; compound 1.0 µM", "value": 98, "unit": "%"},
      {"measurement": "residual activity", "setting": "[10]; compound 0.1 µM", "value": 102, "unit": "%"},
      {"measurement": "residual activity", "setting": "[10]; compound 1.0 µM", "value": 89, "unit": "%"},
      {"measurement": "residual activity", "setting": "[11]; compound 0.1 µM", "value": 92, "unit": "%"},
      {"measurement": "residual activity", "setting": "[11]; compound 1.0 µM", "value": 96, "unit": "%"},
      {"measurement": "residual activity", "setting": "[12]; compound 0.1 µM", "value": 89, "unit": "%"},
      {"measurement": "residual activity", "setting": "[13]; compound 0.1 µM", "value": 79, "unit": "%"},
      {"measurement": "residual activity", "setting": "[13]; compound 1.0 µM", "value": 78, "unit": "%"},
      {"measurement": "residual activity", "setting": "[14]; compound 0.1 µM", "value": 85, "unit": "%"},
      {"measurement": "residual activity", "setting": "[14]; compound 1.0 µM", "value": 85, "unit": "%"},
      {"measurement": "residual activity", "setting": "[15]; compound 0.1 µM", "value": 115, "unit": "%"},
      {"measurement": "residual activity", "setting": "[15]; compound 1.0 µM", "value": 106, "unit": "%"},
      {"measurement": "residual activity", "setting": "[16]; compound 0.1 µM", "value": 79, "unit": "%"},
      {"measurement": "residual activity", "setting": "[16]; compound 1.0 µM", "value": 79, "unit": "%"},
      {"measurement": "residual activity", "setting": "[17]; compound 0.1 µM", "value": 113, "unit": "%"},
      {"measurement": "residual activity", "setting": "[18]; compound 0.1 µM", "value": 79, "unit": "%"},
      {"measurement": "residual activity", "setting": "[18]; compound 1.0 µM", "value": 89, "unit": "%"},
      {"measurement": "residual activity", "setting": "[19]; compound 0.1 µM", "value": 97, "unit": "%"},
      {"measurement": "residual activity", "setting": "[19]; compound 1.0 µM", "value": 89, "unit": "%"},
      {"measurement": "residual activity", "setting": "[20]; compound 0.1 µM", "value": 86, "unit": "%"},
      {"measurement": "residual activity", "setting": "[20]; compound 1.0 µM", "value": 91, "unit": "%"},
      {"measurement": "residual activity", "setting": "[21]; compound 0.1 µM", "value": 97, "unit": "%"},
      {"measurement": "residual activity", "setting": "[21]; compound 1.0 µM", "value": 101, "unit": "%"},
      {"measurement": "residual activity", "setting": "[22]; compound 0.1 µM", "value": 88, "unit": "%"},
      {"measurement": "residual activity", "setting": "[22]; compound 1.0 µM", "value": 92, "unit": "%"},
      {"measurement": "residual activity", "setting": "[23]; compound 0.1 µM", "value": 86, "unit": "%"},
      {"measurement": "residual activity", "setting": "[23]; compound 1.0 µM", "value": 80, "unit": "%"},
      {"measurement": "residual activity", "setting": "[24]; compound 0.1 µM", "value": 80, "unit": "%"},
      {"measurement": "residual activity", "setting": "[24]; compound 1.0 µM", "value": 82, "unit": "%"}
    ]},
    {"smiles": "O=C1Nc2nc(-c3c(O)cccc3OCC3CC3)cc(C3CCCNC3)c2CO1", "note": "(stereo unspecified)", "values": [
      {"measurement": "residual activity", "setting": "[1]; compound 1.0 µM", "value": 76, "unit": "%"},
      {"measurement": "residual activity", "setting": "[1]; compound 10.0 µM", "value": 37, "unit": "%"},
      {"measurement": "residual activity", "setting": "[2]; compound 1.0 µM", "value": 102, "unit": "%"},
      {"measurement": "residual activity", "setting": "[2]; compound 10.0 µM", "value": 88, "unit": "%"},
      {"measurement": "residual activity", "setting": "[4]; compound 1.0 µM", "value": 98, "unit": "%"},
      {"measurement": "residual activity", "setting": "[4]; compound 10.0 µM", "value": 65, "unit": "%"},
      {"measurement": "residual activity", "setting": "[5]; compound 1.0 µM", "value": 76, "unit": "%"},
      {"measurement": "residual activity", "setting": "[5]; compound 10.0 µM", "value": 15, "unit": "%"},
      {"measurement": "residual activity", "setting": "[6]; compound 1.0 µM", "value": 44, "unit": "%"},
      {"measurement": "residual activity", "setting": "[6]; compound 10.0 µM", "value": 7, "unit": "%"},
      {"measurement": "residual activity", "setting": "[7]; compound 1.0 µM", "value": 98, "unit": "%"},
      {"measurement": "residual activity", "setting": "[7]; compound 10.0 µM", "value": 87, "unit": "%"},
      {"measurement": "residual activity", "setting": "[8]; compound 1.0 µM", "value": 90, "unit": "%"},
      {"measurement": "residual activity", "setting": "[8]; compound 10.0 µM", "value": 93, "unit": "%"},
      {"measurement": "residual activity", "setting": "[9]; compound 1.0 µM", "value": 102, "unit": "%"},
      {"measurement": "residual activity", "setting": "[9]; compound 10.0 µM", "value": 68, "unit": "%"},
      {"measurement": "residual activity", "setting": "[11]; compound 1.0 µM", "value": 91, "unit": "%"},
      {"measurement": "residual activity", "setting": "[11]; compound 10.0 µM", "value": 84, "unit": "%"},
      {"measurement": "residual activity", "setting": "[12]; compound 1.0 µM", "value": 69, "unit": "%"},
      {"measurement": "residual activity", "setting": "[12]; compound 10.0 µM", "value": 36, "unit": "%"},
      {"measurement": "residual activity", "setting": "[13]; compound 1.0 µM", "value": 100, "unit": "%"},
      {"measurement": "residual activity", "setting": "[13]; compound 10.0 µM", "value": 83, "unit": "%"},
      {"measurement": "residual activity", "setting": "[14]; compound 1.0 µM", "value": 94, "unit": "%"},
      {"measurement": "residual activity", "setting": "[14]; compound 10.0 µM", "value": 49, "unit": "%"},
      {"measurement": "residual activity", "setting": "[15]; compound 1.0 µM", "value": 95, "unit": "%"},
      {"measurement": "residual activity", "setting": "[15]; compound 10.0 µM", "value": 70, "unit": "%"},
      {"measurement": "residual activity", "setting": "[16]; compound 1.0 µM", "value": 100, "unit": "%"},
      {"measurement": "residual activity", "setting": "[16]; compound 10.0 µM", "value": 94, "unit": "%"},
      {"measurement": "residual activity", "setting": "[17]; compound 10.0 µM", "value": 40, "unit": "%"},
      {"measurement": "residual activity", "setting": "[18]; compound 1.0 µM", "value": 98, "unit": "%"},
      {"measurement": "residual activity", "setting": "[18]; compound 10.0 µM", "value": 93, "unit": "%"},
      {"measurement": "residual activity", "setting": "[25]; compound 1.0 µM", "value": 79, "unit": "%"},
      {"measurement": "residual activity", "setting": "[25]; compound 10.0 µM", "value": 62, "unit": "%"},
      {"measurement": "residual activity", "setting": "[19]; compound 1.0 µM", "value": 84, "unit": "%"},
      {"measurement": "residual activity", "setting": "[19]; compound 10.0 µM", "value": 67, "unit": "%"},
      {"measurement": "residual activity", "setting": "[20]; compound 1.0 µM", "value": 58, "unit": "%"},
      {"measurement": "residual activity", "setting": "[20]; compound 10.0 µM", "value": 14, "unit": "%"},
      {"measurement": "residual activity", "setting": "[21]; compound 1.0 µM", "value": 72, "unit": "%"},
      {"measurement": "residual activity", "setting": "[21]; compound 10.0 µM", "value": 78, "unit": "%"},
      {"measurement": "residual activity", "setting": "[22]; compound 1.0 µM", "value": 88, "unit": "%"},
      {"measurement": "residual activity", "setting": "[22]; compound 10.0 µM", "value": 67, "unit": "%"},
      {"measurement": "residual activity", "setting": "[23]; compound 1.0 µM", "value": 78, "unit": "%"},
      {"measurement": "residual activity", "setting": "[23]; compound 10.0 µM", "value": 45, "unit": "%"},
      {"measurement": "residual activity", "setting": "[24]; compound 1.0 µM", "value": 71, "unit": "%"},
      {"measurement": "residual activity", "setting": "[24]; compound 10.0 µM", "value": 31, "unit": "%"}
    ]}
  ]
}
